The subject of one series is Plasma. The settings on record: human.
A further series can be described thus: clinical. The settings on record: human, in vivo.
Series [1] can be described thus: Dissociation constant, pKa of the compound. Type of series: physicochemical.

Drawing on ChEMBL document CHEMBL1153781, “Prediction of volume of distribution values in human using immobilized artificial membrane partitioning coefficients, the fraction of compound ionized and plasma protein binding data” (Eur J Med Chem, 2009), this text covers fu, Vd and pKa for 57 molecules.

Description for Plasma: Fraction unbound in human plasma

Broadly, the Vd is the apparent volume that relates the amount in the body to the concentration in plasma or blood. Low readings indicate little distribution into tissue, high ones wide distribution into tissue. In the series with Plasma, `CC(=O)[C@@]1(O)CC[C@H]2[C@@H]3C[C@H](C)C4=CC(=O)CC[C@]4(C)[C@H]3CC[C@@]21C` gave a fu of 0.1. In the series “clinical”, the Vd stood at 4.66 L/kg.
In the series with Plasma, `CCOC(=O)[C@H](CCc1ccccc1)N[C@@H](C)C(=O)N1CCC[C@H]1C(=O)O` yielded a fu of 0.4. This molecule registered a distribution volume (Vd) in the series “clinical” of 1.7 L/kg.
What is called pKa is the negative logarithm of the acid dissociation constant. Higher therefore signals a weaker acid or stronger base. On to `Nc1ncnc2c1ncn2CCOCP(=O)(O)O` [ADEFOVIR], for which the fu with Plasma came to 0.895. In series [1], the pKa worked out at 1.3.
`CC1(C)S[C@@H]2[C@H](NC(=O)[C@H](N)c3ccc(O)cc3)C(=O)N2[C@H]1C(=O)O` [AMOXICILLIN]: in the series with Plasma, the fu is 0.82. The pKa in series [1] came out at 2.4. In addition, the Vd in the series “clinical” worked out at 0.85 L/kg.
Regarding `CN1CCc2cccc3c2[C@H]1Cc1ccc(O)c(O)c1-3` [APOMORPHINE], in the series with Plasma, the fu is 0.5. The same molecule displayed a Vd in “clinical” of 2 L/kg.
On the same counts, the results for `CC(=O)Oc1ccccc1C(=O)O` [ASPIRIN] are 0.3 and 0.15 L/kg.
In series [1], `C[C@H]1[C@H](NC(=O)/C(=N\OC(C)(C)C(=O)O)c2csc(N)n2)C(=O)N1S(=O)(=O)O` [AZTREONAM] returned a pKa of 2.75.
`CCCCN1CCCCC1C(=O)Nc1c(C)cccc1C` (centres undefined) [BUPIVACAINE] showed a fu in the series on Plasma of 0.044. Moreover, in series [1], the pKa amounted to 8.16. Besides, the Vd in “clinical” was found to be 0.7 L/kg.
On to `NC(=O)N1c2ccccc2C=Cc2ccccc21` [CARBAMAZEPINE], for which the fu in the series with Plasma is reported as 0.25. Moreover, the Vd in the series “clinical” was determined as 1.4 L/kg.
As for `Cc1nnc(SCC2=C(C(=O)O)N3C(=O)[C@@H](NC(=O)Cn4cnnn4)[C@H]3SC2)s1` [CEFAZOLIN], the pKa in series [1] was 2.1.
As to `C=CC1=C(C(=O)O)N2C(=O)[C@@H](NC(=O)/C(=N\OCC(=O)O)c3csc(N)n3)[C@H]2SC1` [CEFIXIME], in the series on Plasma, the fu is reported as 0.33. In addition, in series [1], the pKa is 2.1.
`CCN1CCN(C(=O)N[C@@H](C(=O)N[C@@H]2C(=O)N3C(C(=O)O)=C(CSc4nnnn4C)CS[C@H]23)c2ccc(O)cc2)C(=O)C1=O` [CEFOPERAZONE] gave a pKa in series [1] of 2.6.
On to `CO/N=C(\C(=O)N[C@@H]1C(=O)N2C(C(=O)O)=C(COC(C)=O)CS[C@H]12)c1csc(N)n1` [CEFOTAXIME], for which the fu in the series on Plasma came out at 0.6. Besides, in series [1], the pKa turned out to be 3.75. This molecule also registered a Vd in the series “clinical” of 0.28 L/kg.
In turn, `CO/N=C(\C(=O)N[C@@H]1C(=O)N2C(C(=O)O)=C(CSc3nc(=O)c(=O)[nH]n3C)CS[C@H]12)c1csc(N)n1` [CEFTRIAXONE] came in with a fu with Plasma of 0.075. In addition, the pKa in series [1] was determined as 2.7.
Consider `O=C(O)c1cc(=O)c2c(OCC(O)COc3cccc4oc(C(=O)O)cc(=O)c34)cccc2o1` [CROMOLYN], for which the fu in the series on Plasma amounted to 0. In series [1], the pKa is 1.9. For the same molecule, the Vd in “clinical” worked out at 0.32 L/kg.
`CN(C)CCC=C1c2ccccc2COc2ccccc21` [DOXEPIN] showed a fu in the series with Plasma of 0.17. Also, the Vd in the series “clinical” is 11.7 L/kg.
On the same counts, the results for `Cn1c(=O)c2c(ncn2CC(O)CO)n(C)c1=O` (centres undefined) [DYPHYLLINE] are 0.6 and 0.8 L/kg.
`CCn1cc(C(=O)O)c(=O)c2cc(F)c(N3CCNCC3)nc21` [ENOXACIN] showed a fu with Plasma of 0.485. The same molecule displayed a pKa in series [1] of 6.3. In the series “clinical”, this molecule showed a Vd of 1.96 L/kg.
For `COC(=O)CCc1ccc(OCC(O)CNC(C)C)cc1` (centres undefined) [ESMOLOL], in the series with Plasma, the fu came to 0.45. Also, the pKa in series [1] came out at […]. For the same molecule, the Vd in the series “clinical” stood at 1.9 L/kg.
As for `CC(C(=O)O)c1ccc(-c2ccccc2)c(F)c1` (centres undefined) [FLURBIPROFEN], the fu with Plasma came out at 0.01. This molecule returned a volume of distribution (Vd) in the series “clinical” of 0.12 L/kg.
Consider `COc1c(N2CCNC(C)C2)c(F)cc2c(=O)c(C(=O)O)cn(C3CC3)c12` (centres undefined) [GATIFLOXACIN], for which the pKa in series [1] was 6. The molecule further showed a volume of distribution (Vd) in “clinical” of 1.75 L/kg.
`Cc1ccc(S(=O)(=O)NC(=O)NN2CC3CCCC3C2)cc1` (centres undefined) [GLICLAZIDE] yielded a fu with Plasma of 0.09. Also, the pKa in series [1] was determined as 5.98. For the same molecule, the Vd in “clinical” is 0.36 L/kg.
On the same counts, the results for `COc1ccc2c(c1)C(=O)N(CCc1ccc(S(=O)(=O)NC(=O)NC3CCCCC3)cc1)C(=O)C2(C)C` [GLIQUIDONE] are 0.01, 5 and 0.16 L/kg.
Consider `COc1ccc(Cl)cc1C(=O)NCCc1ccc(S(=O)(=O)NC(=O)NC2CCCCC2)cc1` [GLYBURIDE], for which the fu in the series on Plasma was 0.01. Moreover, the Vd in “clinical” worked out at 0.14 L/kg.
On the same counts, the results for `COC1=CC(=O)C[C@@H](C)[C@]12Oc1c(Cl)c(OC)cc(OC)c1C2=O` [GRISEOFULVIN] are 0.16 and 1.5 L/kg.
The corresponding values for `NS(=O)(=O)c1cc2c(cc1Cl)NCNS2(=O)=O` [HYDROCHLOROTHIAZIDE] are 0.6 and 0.83 L/kg.
The corresponding values for `COc1ccc2c(c1)c(CC(=O)O)c(C)n2C(=O)c1ccc(Cl)cc1` [INDOMETHACIN] are 0.1 and 0.1 L/kg.
Regarding `NNC(=O)c1ccncc1` [ISONIAZID], the fu in the series with Plasma is given as 1. Also, the Vd in the series “clinical” amounted to 0.67 L/kg.
The corresponding values for `Cc1c(OCC(F)(F)F)ccnc1C[S+]([O-])c1nc2ccccc2[nH]1` (centres undefined) [LANSOPRAZOLE] are 0.03 and 0.35 L/kg.
The corresponding values for `C[C@H]1COc2c(N3CCN(C)CC3)c(F)cc3c(=O)c(C(=O)O)cn1c23.C[C@H]1COc2c(N3CCN(C)CC3)c(F)cc3c(=O)c(C(=O)O)cn1c23.O` [LEVOFLOXACIN] are 0.69 and 1.36 L/kg.
Molecule `CCC[C@@H]1C[C@@H](C(=O)N[C@@H]([C@H]2O[C@H](SC)[C@H](O)[C@@H](O)[C@H]2O)[C@@H](C)O)N(C)C1` [LINCOMYCIN] came in with a fu with Plasma of 0.28. This molecule yielded a Vd in “clinical” of 1.3 L/kg.
In the series with Plasma, `CCn1cc(C(=O)O)c(=O)c2cc(F)c(N3CCNC(C)C3)c(F)c21` (centres undefined) [LOMEFLOXACIN] gave a fu of 0.89. The molecule also registered a pKa in series [1] of 5.99. Also, the volume of distribution (Vd) in “clinical” came to 2.3 L/kg.
Molecule `CCOC(=O)C1(c2ccccc2)CCN(C)CC1` [MEPERIDINE] showed a fu in the series on Plasma of 0.42. For the same molecule, the pKa in series [1] stood at 10.5.
With `Cc1ccccc1N1C(=O)c2cc(S(N)(=O)=O)c(Cl)cc2NC1C` (centres undefined) [METOLAZONE], the pKa in series [1] is 9.72. This molecule also showed a Vd in the series “clinical” of 1.61 L/kg.
In the series with Plasma, `Nc1cc(N2CCCCC2)nc(N)[n+]1[O-]` [MINOXIDIL] showed a fu of 1. This molecule also registered a pKa in series [1] of 4.6. Further, the Vd in the series “clinical” was determined as 3 L/kg.
The corresponding values for `CN1CCOC(c2ccccc2)c2ccccc2C1` (centres undefined) [NEFOPAM] are 0.27, 9.3 and 7.23 L/kg.
Turning to `COC(=O)C1=C(C)NC(C)=C(C(=O)OCCN(C)Cc2ccccc2)C1c1cccc([N+](=O)[O-])c1` (centres undefined) [NICARDIPINE], the fu in the series on Plasma worked out at 0.05. The molecule also displayed a Vd in “clinical” of 0.98 L/kg.
On the same counts, the results for `COCCOC(=O)C1=C(C)NC(C)=C(C(=O)OC(C)C)C1c1cccc([N+](=O)[O-])c1` (centres undefined) [NIMODIPINE] are 0.05 and 1.5 L/kg.
In turn, `CCn1cc(C(=O)O)c(=O)c2cc(F)c(N3CCNCC3)cc21` [NORFLOXACIN] registered a fu in the series on Plasma of 0.85. The molecule also returned a pKa in series [1] of 6.3. In “clinical”, this molecule gave a Vd of 2.8 L/kg.
In the series with Plasma, `CCCC(C)C1(CC)C(=O)NC(=O)NC1=O` (centres undefined) [PENTOBARBITAL] had a fu of 0.45. This molecule also gave a pKa in series [1] of 8.1. For the same molecule, the Vd in the series “clinical” was found to be 1 L/kg.
Molecule `CCC1(c2ccccc2)C(=O)NC(=O)NC1=O` [PHENOBARBITAL] registered a fu in the series on Plasma of 0.5. Also, in the series “clinical”, the Vd is 0.63 L/kg.
The corresponding values for `O=C1NC(=O)C(c2ccccc2)(c2ccccc2)N1` [PHENYTOIN] are 0.1 and 0.64 L/kg.
On the same counts, the results for `CN1C(C(=O)Nc2ccccn2)=C(O)c2ccccc2S1(=O)=O` [PIROXICAM] are 0.01 and 0.14 L/kg.
With `CC[C@H](C)C(=O)O[C@H]1C[C@H](O)C=C2C=C[C@H](C)[C@H](CC[C@@H](O)C[C@@H](O)CC(=O)O)[C@H]21` [PRAVASTATIN], the fu in the series with Plasma came to 0.55. In addition, in series [1], the pKa was 4.7.
On the same counts, the results for `CCCNC(C)C(=O)Nc1ccccc1C` (centres undefined) [PRILOCAINE] are 0.715 and 7.9.
As to `CCCOC(C(=O)OC1CCN(C)CC1)(c1ccccc1)c1ccccc1` [PROPIVERINE], in the series with Plasma, the fu is on record as 0.075. Moreover, the pKa in series [1] amounted to 6.65. The Vd in “clinical” was 1.9 L/kg.
As for `CN[C@@H](C)[C@@H](O)c1ccccc1` [PSEUDOEPHEDRINE], the fu in the series with Plasma amounted to 1. This molecule also had a Vd in the series “clinical” of 2.84 L/kg.
As to `NC(=O)c1cnccn1` [PYRAZINAMIDE], the fu in the series with Plasma amounted to 0.9. In addition, in “clinical”, the Vd is 0.7 L/kg.
On the same counts, the results for `CCCN1CCCC[C@H]1C(=O)Nc1c(C)cccc1C` [ROPIVACAINE] are 0.06 and 0.55 L/kg.
The corresponding values for `O=C(O)c1ccccc1O` [SALICYLIC ACID] are 0.05 and 0.17 L/kg.
The corresponding values for `Nc1ccc(S(=O)(=O)Nc2ncccn2)cc1` [SULFADIAZINE] are 0.55 and 0.92 L/kg.
For `CCN1CCCC1CNC(=O)c1cc(S(N)(=O)=O)ccc1OC` (centres undefined) [SULPIRIDE], the fu with Plasma was 0.6. Moreover, in the series “clinical”, the Vd was 2.5 L/kg.
On to `CCS(=O)(=O)CCn1c([N+](=O)[O-])cnc1C` [TINIDAZOLE], for which, in the series on Plasma, the fu was found to be 0.88. The molecule further had a Vd in the series “clinical” of 0.7 L/kg.
For `CCCCNC(=O)NS(=O)(=O)c1ccc(C)cc1` [TOLBUTAMIDE], the Vd in the series “clinical” was 0.14 L/kg.
`COc1cccc(C2(O)CCCCC2CN(C)C)c1` (centres undefined) [TRAMADOL] had a fu in the series on Plasma of 0.96. The molecule also came in with a pKa in series [1] of 8.3.
Take `C[C@]12C=CC(=O)C=C1CC[C@H]1[C@@H]3C[C@@H](O)[C@](O)(C(=O)CO)[C@@]3(C)C[C@H](O)[C@@]12F` [TRIAMCINOLONE]: the fu with Plasma is 0.32. Also, the Vd in “clinical” was 1.76 L/kg.
On the same counts, the results for `CC(=O)CC(c1ccccc1)c1c(O)c2ccccc2oc1=O` (centres undefined) [WARFARIN] are 0.01 and 0.14 L/kg.
